By Kd is commonly meant a measure of binding affinity in units of concentration.

The target of one data set is T1, HuD (Homo sapiens, UniProt P26378).
T1 construct: gene ELAVL4; HuD-His, expressed in HEK293T cells and purified
Nature of the data set: REMSA of purified HuD with Cy3 AU-rich RNA probe. The class given is biochemical.

The target of another data set is T2, HuR (Homo sapiens, UniProt Q15717).
T2 construct: gene ELAVL1; recombinant HuR (HuR-cMyc-His)
Kind of data set: REMSA of recombinant HuR with Cy3 AU-rich RNA probe at equilibrium. The class given is biochemical.

Another data set concerns the target HuR M2_M3 (human, UniProt Q15717 117-326). Nature of the data set: equilibrium binding, assay not stated (REMSA or AlphaScreen); no DHTS; limited effect of DHTS; REMSA/AlphaScreen buffers as in ref 23 (not given); pull-down lysates: 20 mM HEPES pH 7.5, 50 mM KCl, 0.5 ug BSA, 0.25% glycerol, 4 C. To be noted: protein: recombinant; tags: His; label: 5'-Cy3; single strand.

A further data set concerns the target HuR M1_M2 (human, UniProt Q15717 1-197). Kind of data set: equilibrium binding, assay not stated (REMSA or AlphaScreen); no DHTS; DHTS inhibits, Ki 4.12 nM; REMSA/AlphaScreen buffers as in ref 23 (not given); pull-down lysates: 20 mM HEPES pH 7.5, 50 mM KCl, 0.5 ug BSA, 0.25% glycerol, 4 C. Conditions: protein: recombinant; tags: His; label: 5'-Cy3; single strand. A general note: Bead proximity is the source of the signal in Alpha formats.

T2 sequence (Q15717 2-326): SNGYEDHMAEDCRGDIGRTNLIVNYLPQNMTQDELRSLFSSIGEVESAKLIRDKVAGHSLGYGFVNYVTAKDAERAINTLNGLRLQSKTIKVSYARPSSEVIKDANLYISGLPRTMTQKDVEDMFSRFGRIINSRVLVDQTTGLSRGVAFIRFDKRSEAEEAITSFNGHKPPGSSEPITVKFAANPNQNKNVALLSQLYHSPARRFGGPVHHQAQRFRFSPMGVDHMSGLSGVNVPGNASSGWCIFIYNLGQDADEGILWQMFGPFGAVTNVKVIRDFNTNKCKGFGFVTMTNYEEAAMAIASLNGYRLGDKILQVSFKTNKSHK
T1 sequence (P26378 whole entry): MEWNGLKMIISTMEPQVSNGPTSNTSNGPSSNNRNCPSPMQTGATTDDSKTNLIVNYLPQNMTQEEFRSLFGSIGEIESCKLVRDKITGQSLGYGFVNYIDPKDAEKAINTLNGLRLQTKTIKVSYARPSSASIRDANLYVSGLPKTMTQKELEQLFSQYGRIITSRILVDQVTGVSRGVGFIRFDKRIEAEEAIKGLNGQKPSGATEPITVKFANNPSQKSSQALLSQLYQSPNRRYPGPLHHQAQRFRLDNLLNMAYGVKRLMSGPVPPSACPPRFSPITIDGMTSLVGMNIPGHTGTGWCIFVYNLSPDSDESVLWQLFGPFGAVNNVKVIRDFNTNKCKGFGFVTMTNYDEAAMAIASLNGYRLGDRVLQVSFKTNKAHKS
HuR M2_M3, sequence (Q15717 117-326): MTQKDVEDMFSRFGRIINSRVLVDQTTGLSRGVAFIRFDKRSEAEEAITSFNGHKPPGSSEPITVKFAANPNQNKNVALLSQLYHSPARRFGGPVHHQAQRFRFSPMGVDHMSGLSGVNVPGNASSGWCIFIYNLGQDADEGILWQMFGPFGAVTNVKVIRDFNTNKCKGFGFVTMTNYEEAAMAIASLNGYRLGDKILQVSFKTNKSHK
HuR M1_M2, sequence (Q15717 1-197): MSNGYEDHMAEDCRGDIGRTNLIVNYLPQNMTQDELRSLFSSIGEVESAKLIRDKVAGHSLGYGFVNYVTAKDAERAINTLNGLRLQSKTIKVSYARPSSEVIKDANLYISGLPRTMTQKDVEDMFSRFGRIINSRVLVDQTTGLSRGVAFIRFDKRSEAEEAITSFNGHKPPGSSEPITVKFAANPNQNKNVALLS

For the molecule `Cc1cccc2c3c(ccc12)C1=C(C(=O)C3=O)[C@@H](C)CO1` [15,16-dihydrotanshinone-I], on HuD, the “REMSA of purified HuD with Cy3 AU-rich RNA probe” value is reported as “only HuD-RNA complex formation was affected by DHTS at the reference doses”. In the case of `C[C@H]1COC2=C1C(=O)C(=O)c1c2ccc2c1CCCC2(C)C` [Cryptotanshinone], the “REMSA of recombinant HuR with Cy3 AU-rich RNA probe at equilibrium” value on HuR is “while cryptotanshinone and tanshinone IIA were less potent (micromolar range)”. On the same count and under the same terms, for `Cc1coc2c1C(=O)C(=O)c1c-2ccc2c(C)cccc12` [TanI, Tanshinone I] the value was “the potency of tanshinone I was comparable to DHTS at equilibrium (Fig. 2B)”. The same measure, in the same setting: for `Cc1coc2c1C(=O)C(=O)c1c-2ccc2c1CCCC2(C)C` [TanII, Tanshinone IIA] the value was “while cryptotanshinone and tanshinone IIA were less potent (micromolar range)”.

B1: Cy3 TNF ARE RNA probe (ssRNA)
RNA: AUUAUUUAUUAUUUAUUUAUUAUUUA
For the molecule B1, the Kd with HuR M2_M3 is roughly 24 nM; in the data set with HuR M1_M2 it was 2.66 nM.
